Results: US20230111996A1, “COMPOUNDS AND CONJUGATES THEREOF” (priority 2020, published 2023)
pIC50: −log10 of the molar value.

Key:
Assay type in all cases: cell-based
HCT116 = experiment: In-vitro cytotoxicity test of compounds ([…]-GLO), HCT116; details: Homo sapiens, HCT-116; HCT116, 72 hours
Description: (§1) Killing of human tumor cell lines was evaluated in vitro using the protocol recommended in the […]-GLO® kit (Promega, Madison, Wis.). Briefly, 3×10^3 cells in […] RPMI+10% FBS were added to the inner wells of white-walled 96-well plates (Corning® Costar®, Fisher Scientific, Waltham, Mass.). The following cell lines were tested: A549, HCT116 and SKBR3. The test compounds were diluted to a 5Ax stock (125 μM) in RPMI+10% FBS. Treatments were then serially diluted 1:10 in RPMI+10% FBS. […] of this series was added to the cells in triplicate, resulting in a 9-point dose curve of test compound ranging from […] at the highest concentration to 2.5×10^−7 mM at the lowest. DMSO (vehicle) and media-only controls also were included. Plates were incubated at 37° C., 5% CO2 for 72 hours. At the end of the incubation period, […] of the Substrate Solution (Promega, Madison Wis.) was added to each well. Luminescence was measured using an EnVision Multilabel plate reader (Perkin Elmer, Waltham, Mass.). Data were analyzed and graphed using GraphPad Prism software (GraphPad Software, Inc., La Jolla, Calif.).

A549 = experiment: In-vitro cytotoxicity test of compounds ([…]-GLO), A549; details: Homo sapiens; A549, 72 hours
Description: as §1

SKBR3 = experiment: In-vitro cytotoxicity test of compounds ([…]-GLO), SKBR3; details: Homo sapiens, SK-BR-3; SKBR3, 72 hours
Description: as §1

| SMILES | pIC50 (HCT116) | pIC50 (A549) | pIC50 (SKBR3) |
| --- | --- | --- | --- |
| CC[C@@]1(O)C(=O)OCc2c1cc1n(c2=O)Cc2c-1nc1cc(F)c(C)c3c1c2[C@@H](N)CC3 [Exatecan] | 9.00 | 8.61 | 9.74 |
| CC[C@@]1(O)C(=O)OCc2c1cc1n(c2=O)Cc2c-1nc1cc(F)c(N)c3c1c2CCC3 [Compound 1, (S)-4-amino-9-ethyl-5-fluoro-9-hydroxy-1,2,3,9,12,15-hexahydro-10H,13H-benzo[de]pyrano[3′,4′:6,7]indolizino[1,2-b]quinoline-10,13-dione] | 9.78 | 9.60 | 10.02 |
